Read-outs that look alike come from different tables or passages of the source. Each block holds one compound with its values, some of them ahead of it.
Assays:
[1] = Rodent pharmacokinetics (IV, PO, IP); assay type: in vivo, Male C57BL/6 Mice; settings: mouse
Protocol: The inventors also examined ML400 (also described herein as MLS-0472870 or Compound D1) for its rodent pharmacokinetics. The probe Compound D1 was profiled in Male C57BL/6 Mice, with n=3 for each group studied (IV, IP and PO arms). The formulation used was 1.00 mg/mL in DMSO:Tween80:Water=5:5:90, which gave a clear solution. […] Enterohepatic circulation was also observed for this compound. This compound has acceptable parameters for future in vivo studies (see Table 4 and FIG. 13).

[2] = Liver function: serum alanine transaminase or aspartate transaminase of treated mice; assay type: in vivo; settings: mice treated 30 mg/kg daily IP
Protocol: Serum alanine transaminase or aspartate transaminase levels from mice treated with Compound D1 (ML400) or vehicle (mice shown in FIG. 10) were assessed using EnzyChrom Assay Kits from BioAssay Systems.

[3] = Kidney function: serum creatinine of treated mice; assay type: in vivo; settings: mice treated 30 mg/kg daily IP
Protocol: Serum creatinine levels from mice treated with Compound D1 (ML400) or vehicle (mice shown in FIG. 9) were assessed using the QuantiChrom Creatinine Assay Kit from BioAssay Systems.

[4] = test system: obese mice (glucose tolerance); experiment: IPGTT in high-fat-diet obese mice; assay type: in vivo, Male C57BL/6 mice; settings: 30 mg/kg daily IP, 4 weeks, HFD obese mice, 2 g glucose/kg
Protocol: Male C57BL/6 mice were maintained on HFD containing 60 kcal % fat for 3 months, followed by daily IP administration of 30 mg/kg Compound D1 or vehicle. After 4 weeks, IPGTT were performed using 2 g glucose/kg body weight. Mean±SEM is shown. *, p<0.05, Two-way ANOVA.

[5] = Aqueous solubility in buffer pH 5.0-7.4 and PBS; assay type: physicochemical
3T3-L1 pre-adipocytes = experiment: Insulin-based 3T3-L1 adipogenesis assay (AdipoRed); assay type: cell-based, mouse; settings: 10 μM
Protocol: The probe Compound D1 was also profiled in an insulin-based mouse 3T3-L1 adipogenesis assay. In this assay, 3T3-L1 pre-adipocytes are grown to 2-days post-confluence in DMEM with 10% bovine calf serum, and then induced to differentiate to adipocytes following stimulation for 2 days with an induction cocktail containing […] insulin, 1 μM dexamethasone, and 0.5 mM 3-isobutyl-1-methylxanthine in DMEM containing 10% fetal bovine serum (FBS).^44 2 days later, the media is replaced with DMEM with 10% FBS and 1 μg/ml insulin, and after 2 additional days, the media is replaced with DMEM with 10% FBS for 2 additional days, at which point adipogenesis is measured using the AdipoRed Adipogenesis Assay Reagent from Lonza, according to the manufacturer's instructions. In brief, the assay reagent is added to the wells containing cells, where it partitions into the fat droplets of differentiated adipocytes, and emits fluorescence at 572 nm that can be detected with a plate-reader. To test the effect of probe Compound D1, cells were plated into 48-well plates and allowed to grow to confluence. Cells were then treated with 10 μM Compound D1 or 0.025% DMSO, and after 2 days induced to differentiate in the presence of 10 μM Compound D1 or 0.025% DMSO. Fresh compound or DMSO was added during each media replacement.

[6] = target: LMPTP-A (Low Molecular Weight Protein Tyrosine Phosphatase-A) enzyme (Homo sapiens (Human), UniProt P24666); experiment: LMPTP primary screening / LMPTP (OMFP) enzyme inhibition assay, fluorescence intensity; assay type: biochemical
LMPTP-A (Low Molecular Weight Protein Tyrosine Phosphatase-A) enzyme, sequence (P24666 whole entry): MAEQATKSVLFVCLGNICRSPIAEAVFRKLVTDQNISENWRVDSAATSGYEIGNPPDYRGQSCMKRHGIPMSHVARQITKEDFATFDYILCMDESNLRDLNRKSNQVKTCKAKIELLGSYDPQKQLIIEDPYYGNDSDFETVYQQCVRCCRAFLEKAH
Protocol: This assay attempts to identify inhibitors of the LMPTP-A (Low Molecular Weight Protein Tyrosine Phosphatase-A) enzyme. It is run in 1536-well format and is measured via fluorescence intensity.
A listing of materials is provided: • Item, source, catalog no. • LMPTP-A Enzyme Stock Solution (4.22 mg/ml or 206.8 μM), SBMRI Protein Facility, • N/A • OMFP, Sigma, M2629-100 MG • Bis-Tris pH 6.0, Fisher Sci, BP301-100 • Triton-X 100, Sigma, T9284 • DTT, Sigma, D9779 • Mol. Grade Water, Mediatech, Inc., 46-000-CM • 1536-well black High base opaque bottom plate, Nexus Biosystems, 00019120
Assay Procedure • 1. Prepare Reagents as described in section F. Recipe. • 2. Using LabCyte Echo, transfer 60 nL from 2 mM test compound source plate into assay plate Col. 5-48 (final concentration of test compounds is 20 μM). 60 nL of DMSO should be transferred to col. 1-4 for positive and negative control wells. • 3. Spin plates at 1000 rpm for 1 minute in centrifuge. • 4. […] Using the Bioraptr, add 3 μL/well of enzyme solution to col. 3-48. • 6. Using the Bioraptr, add 3 μL/well of substrate solution to col. 1-48. • 7. Spin plates at 1000 rpm for 1 minute in centrifuge. • 8. Incubate plates in the dark at room temperature for 50 minutes. • 9. Read plates on PerkinElmer Viewlux using a FI protocol.

[7] = test system: insulin receptor in human HepG2 hepatocytes; settings: HepG2 cells, 10 microM overnight, 1.76 microM insulin 5 min
[8] = Hepatic microsomal stability, mouse; assay type: in vitro ADME
From the text: The microsomal stability assay is commonly used to rank compounds according to their metabolic stability. This assay addresses the pharmacologic question of how long the parent compound will remain circulating in plasma within the body.

- Enterohepatic circulation [1]: observed
- liver function (serum alanine transaminase or aspartate transaminase) [2]: does not Affect Liver Function
- kidney function (serum creatinine) [3]: does not Affect Kidney Function
- solubility in PBS ([5]; PBS, compared with aqueous buffer): comparable
- concentration achieved in aqueous buffer relative to IC50 ([5]; pH range of 5.0-7.4): 18-20 ×IC50
Compound: COc1ccc(-c2cc(NCCCN3CCCCC3)c3ccccc3n2)cc1 [Compound D1, 2-(4-methoxyphenyl)-N-(3-(piperidin-1-yl)propyl)quinolin-4-amine]
- glucose tolerance (IPGTT) [4]: Improves Glucose Tolerance
- 3T3-L1 adipogenesis (3T3-L1 pre-adipocytes): completely abolished

Compound: CN(C)Cc1cccc(Nc2cc(-c3ccc(Cl)cc3F)nc3ccccc23)c1 [Compound I9, [(3-{[2-(4-chloro-2-fluorophenyl)(4-quinolyl)]amino}phenyl)methyl]dimethylamine]
- IC50 ([6]; read-out: IC50): 801 to 5000 nM

- IC50 ([6]; read-out: IC50): 801 to 5000 nM
Compound: CNC(=O)c1ccc(-c2cc(NCCCN3CCCCC3)c3ccccc3n2)cc1F [Compound I228]

- IC50 ([6]; read-out: IC50): 200 to 800 nM
Compound: CCN(CC)CCNC(=O)c1ccc(-c2cc(NCCCN3CCCCC3)c3ccccc3n2)cc1 [Compound I254]

- Hepatic Microsome Stability % Remaining @ 1 hr [8]: 0.38%
Compound: c1ccc(-c2cc(NCCN3CCCCC3)c3ccccc3n2)cc1 [Entry 41]
- phosphorylation of the insulin receptor [7]: increases phosphorylation of the insulin receptor

- IC50 ([6]; S sample: compound synthesized de novo by SBCCG, read-out: LMPTP (OMFP) (IC50)): 66900 nM
Compound: CSCCCN1CCCCC1 [Entry 64]

From patent publication US11220486B2 (La Jolla Institute of Allergy & Immunology, priority 2014, dated 2022)
